According to patent publication US8134010B2, “Thiazole-based nitric oxide donors having aryl substituent(s) and uses thereof” (priority 2004, dated 2012):
“Also recorded” adds a separate entry of the source.

Experiments:
isolated rat aorta [1] = assay: Chronic administration of Pet-120 and vasoactivity determination in isolated aorta; type: in vivo; conditions: Pet-120 for 7 days
Description: Male Sprague Dawley rats (250 to 300 grams) were used and housed under constant temperature and humidity conditions. The animals were anesthetized with intraperitoneal injection of ketamine and xylazine combination (50 and 10 mg/kg, respectively). An osmotic miniature pump (ALZA Corp., Palo Alto, Calif.) delivering constant volume (10 μl/hour) of vehicle and Pet-120 was connected to one of the intravenous catheters. The animals received 200 μg/hour for 7 days. As control, a similar number of animals underwent the same surgical procedure and received the vehicle alone (10 μl/hour of a solution consisting of 30% ethanol and 30% propylene glycol in sterile distilled water for injection). At the end of the infusion periods the rats were anesthetized by the combination described above. The abdomen was opened by midline incision and the thoracic aorta was isolate, washed and cleaned from the surrounding tissues.
The aorta of the rats which were treated as described hereinabove was cut into rings of 4-5 mm long each. The rings were mounted under 1 g tension in organ bath containing 30 ml of Krebs-Hansliet solution (pH 7.4) of the following composition (mM): NaCl […], CaCl2 1.6, MgSO4 1.2, KH2PO4 1.2, NaHCO3 25.0, D-glucose 11.1. At 37 C° and gassed with 95% O2- 5% CO2. […]

Sprague-Dawley rats = assay: Effect of Pet-120 on mean arterial blood pressure (MABP) after intravenous bolus infusion; type: in vivo, rat; conditions: 50 micrograms Pet-120 after 10 micrograms phenylephrine
Description: Male Sprague-Dawley rats weighing 310 grams at the beginning of the experiments were anesthetized with ketamine and xylazine (50 and 10 mg/kg, respectively), and an osmotic miniature pump (model 2002; ALZA Co filled with L-NAME) was canulated to right jugular vien (RJV) and implanted subcutaneously at the dorsum of the neck. L-NAME was infusion from ALZA miniature pump at a rate of 500 ng/minute for 24 hours. One day after the rat was anesthetized again with ketamine and xylazine and the both left jugular vein (LJV) and right common carotid (for MABP monitoring) was canulated. After the rats stabilized, Pet-120 was administered through the LJV (50 μg).
The efficacy of Pet-120, an exemplary NO-donating compound according to some embodiments of the present invention, was assayed as presented hereinabove in animals which were treated with phenylephrine so as to heighten their mean arterial blood pressure.

isolated rat aorta [2] = assay: In vitro induction of tolerance to NO releasing compounds (vasorelaxation of pre-exposed aortic rings); type: cell-based; conditions: rings pre-treated with epinephrine and then with 0.44 mM of the same compound
Description: Aortic rings were prepared as described hereinabove, and were exposed to 0.44 mM GTN (vehicle was water:ethanol:propyleneglycol at proportional ratio of 1:1:1) for 1 hour before CCRC construction, to thereby induce tolerance to nitroglycerine. At the end of the tolerance induction period, rings were thrice washed with the path buffer (Krebs-bicrbonate) every 15 minutes for the following hour and then CCRC for vasorelaxation on GTN-induced tolerance rings were constructed for GTN (pretreated versus untreated rings, FIG. 15), in order to verify the ability to induce and measure GTN tolerance induction in vitro
Attempted induction of tolerance to the NO-donating compounds of the present invention was performed under the same conditions as for GTN. Thus, in an exemplary experiment, rings were exposed to 0.44 mM solution of Pet-3 in the attempt to induce tolerance for Pet-3. CCRC were then measured for the vasorelaxing effect of Pet-3 on a group of rings which were pre-exposed to Pet-3 as to induce tolerance to Pet-3, and for an untreated control group. The above protocol was repeated with Pet-2, Pet-7, Pet-8, Pet-12, Pet-24, Pet-43, Pet-149 and Pet-152.

Cc1nc(-c2ccc([N+](=O)[O-])cc2)sc1CCO[N+](=O)[O-] [Pet-120, 4-Methyl-5-(2-nitrooxy-ethyl)-2-(4-nitro-phenyl)-thiazole]
tolerance induction after daily in-vivo administration over 7 days versus single dose (vasorelaxation in isolated aorta) (isolated rat aorta [1]): absence of tolerance inducement; also recorded: not to induce tolerance | effect on mean arterial blood pressure (MABP) (Sprague-Dawley rats): reducing the MABP to its original levels | tolerance induction in vitro (vasorelaxation, pre-treated versus control rings) (isolated rat aorta [2]): absence of tolerance induction; also recorded: lack of tolerance inducement
